From patent US20150299277A1, “AGENT FOR TREATING OR PREVENTING SYSTEMIC INFLAMMATORY RESPONSE SYNDROME” (THE UNIVERSITY OF TOKYO, priority 2012, published 2015)

Test system: each recombinant histone on HUVEC
Test: Cytotoxic assay: suppression of histone cytotoxicity on HUVEC
Type: cell-based, human
Conditions: 1 hr culture, PI staining, FACS
Protocol: Normal human umbilical vein endothelial cells (HUVECs) were cultured in EGM2 medium (Clonetics). The cells after culture were washed with PBS, added with Opti-MEM medium containing an product of incubation of activated protein C (APC), PTX3, C reactive protein (CRP) or Serum amyloid P component (SAP) with histone for 1 hr, and the cells were further cultured for 1 hr. Propidium iodide (PI) was added to the medium after culture at a final concentration of 10 μg/mL, and the cells were stained for 10 min. The cells were washed with PBS, detached and analyzed by flow cytometry.
Using each recombinant histone instead of Calf Thymus Histones, a suppressive effect of full-length PTX3 or the N-terminal domain of PTX3 on histone cytotoxicity was studied in the same manner.

full-length PTX3: full-length human pentraxin 3 (1-381 amino acids, SEQ ID NO: 2), used tag-free or Myc- and His-tagged
suppression of toxic activity of each recombinant histone on HUVEC: suppressed
